Data: patent publication US20060058383A1 (priority 2004, published 2006)

How the values were obtained:
[1] = test system: HL-60 cells; test: MTT assay, in vitro cytotoxic activity before and after storage of drug solutions; type: cell-based, human; settings: pH 7.0, 72 h drug incubation
[2] = test system: human leukemia HL-60 cell line; test: Depletion of cellular ATP pool (PCA extraction, HPLC); type: cell-based; settings: 12 h incubation; HL-60
Experimental: (§1) Cells were incubated with the indicated concentrations of S-Glycolycin or 3-BrPA for 12 h. Cellular ATP was extracted by 0.4 N PCA, neutralized with KOH, and quantified by HPLC analysis. […] Incubation of cells with 0.03 mM S-Glycolycin completely depleted cellular ATP in both cell lines, while it required a 10-fold greater concentration (0.3 mM) of 3-BrPA to achieve the same degree of ATP depletion.

[3] = test system: respiration-deficient subclone HL-60/C6F cells; test: as above; type: cell-based, human; settings: 12 h incubation
Experimental: as §1

[4] = test system: HL-60 cells; test: Induction of apoptosis, annexin-V/PI flow cytometry; type: cell-based, human; settings: 30 μM; 24 h
Experimental: HL-60 cells were incubated with the indicated concentrations of S-Glycolycin or 3-BrPA for 24 h. Apoptosis was measured by double staining with annexin-V and PI, followed by flow cytometry analysis. […] Incubation of HL-60 cells with 30 μM of S-Glycolycin caused more 90% cells to undergo apoptosis in 24 h, whereas the same concentration of 3-BrPA killed less than 20% of the cells within the same time period.

[5] = test system: HL-60/AR cells; test: MTT cytotoxicity, drug-resistant clone versus parental cells; type: cell-based, human; settings: MTT assay
Experimental: HL-60 cell line and its drug-resistant clone HL-60/AR were incubated with the indicated concentrations of doxorubicin, vincristine, and 3-BrPA for 72 h. Cytotoxicity was measured by MTT assay. […] Based on the teachings provided herein, studies may be performed to determine the sensitivity of HL-60/AR cells to Glycolycin.
Ara-C, a drug commonly used in the frontline treatment of leukemia, was used in parallel experiments. Cytotoxicity was measured by MTT assay.

[6] = test system: human colon cancer (HCT116) cells; test: Sensitivity under hypoxic versus normoxic conditions, annexin-V/PI assay; type: cell-based
Source text: (§2) Cancer cells in solid tumors have to adapt to the hypoxia environment due to insufficient blood supply. Under hypoxia conditions, cancer cells use the glycolytic pathway to generate ATP without consuming oxygen. This metabolic adaptation also renders cancer cells relatively resistant to anticancer agents and radiation therapy, partially due to up-regulation of expression of cell survival factors such as HIF-1α. […] However, because under hypoxia condition cancer cells dependent on glycolysis for generation of ATP, it is contemplated that such cancer cells are vulnerable to glycolytic inhibition by Glycolycin. […] Thus, it is envisioned that Glycolycin can be use for effective treatment of many solid tumors, either as a single agent or in combination with other anticancer agents.

[7] = test system: respiration-deficient clones HL-c6/ρ^0-C6F and Raji-C6; test: Cytotoxicity in respiration-deficient clones, annexin-V/PI and colony formation; type: cell-based, human
Experimental: Initial studies have been performed to test the sensitivity of respiration-competent leukemia cells (parental HL-60) and lymphoma cells (parental Raji) in comparison with their respiration-deficient clones HL-c6/ρ^0-C6F and Raji-C6. The mitochondria-defect cell lines were established by the present inventors and others (Pelicano et al., 2003). Cells were incubated with the indicated concentrations of 3-BrPA, and cytotoxicity was measured by two different assays: annexin-V/PI staining and colony formation assay.

[8] = test system: HL-60/AR cells; test: Combination cytotoxicity in multi drug resistant cells, annexin-V/PI assay 24 h; type: cell-based, human; settings: multi drug resistant HL-60/AR cells
[9] = Stability of neutral drug solution on storage
[10] = test system: human lymphoma cells (Raji); test: Apoptosis, annexin-V/PI flow cytometry; type: cell-based
Source text: Because the mTOR pathway plays an important role in promoting cellular nutrient metabolism and cell growth, and function to enhance cell survival downstream of the P13K/Akt pathway, the present inventors postulated that a simultaneous inhibition of mTOR and glycolysis, which serve as a major metabolic pathway for ATP generation in cancer cells, would severely impact cellular energy metabolism and have a potent cytotoxic effect against malignant cells. To test this possibility, rapamycin was used as an agent to inhibit mTOR, and glycolycin (3-bromo-2-oxopropionate, abbreviated herein as 3-BrOP) to inhibit glycolysis.
(§3) Cell growth inhibition was determined by direct counting of the cells after they were treated with rapamycin, 3-BrOP, or their combination. A Coulter Z2 Particle Count & Size Analyzer was used to determine cell counts at 24 h, 48 h, and 72 h after drug incubation. Apoptosis was measured by flow cytometric analysis of cells stained with annexin V-FITC and propidium iodide (PI). Cells were treated with the indicated compounds under various incubation conditions as described in the figure legends. The samples were collected, washed with cold PBS, and then suspended in annexin-V binding buffer. The cells were stained with annexin V-FITC for 15 min at room temperature, washed, and then stained with PI. The samples were analyzed using a FACSCalibur flow cytometer equipped with CELLQuestPro software (Becton-Dickinson, San Jose, Calif.).

[11] = test system: HL-60 cells with high Bcl-2 expression; test: MTT growth inhibition of Bcl-2 transfected cells; type: cell-based, human; settings: MTT assay
Experimental: Cell growth inhibition was measured by MTT assay.
Increased expression of the anti-apoptotic molecule Bcl-2 has been associated with drug resistance in cancer cells. The over-expression of Bcl-2 in HL-60 cells was […] against the cytotoxic effect of S-Glycolycin. […] Thus, Glycolycin may be used to overcome drug resistance due to Bcl-2 over expression.

[12] = test system: human lymphoma cells (Raji); test: Sensitivity under hypoxic versus normoxic conditions, annexin-V/PI assay 24 h; type: cell-based; settings: 0.3 μM
Experimental: (Annexin-V/PI assay, 24 h)
as §2

[13] = test system: Raji cells; test: Cell growth by direct cell counting (Coulter Z2); type: cell-based, human; settings: 100 ng/ml alone; up to 72 h
Experimental: A different assay was then used to further confirm the synergy between rapamycin and 3-BrOP. Raji cells were treated with 30 μM 3-BrOP, 100 ng/ml rapamycin, or their combination, and the numbers of cells were directly counted for consecutive 3 days, using a Coulter Z2 Particle Count & Size Analyzer.
as §3

[14] = test system: Raji cells; test: Cellular glucose uptake, [3H]-2-deoxyglucose; type: cell-based, human; settings: 100 ng/ml for 20 h
Experimental: After the samples were washed three times with cold PBS, the radioactivity in the cell pellets was quantified by liquid scintillation counting. […] Intracellular nucleotides were extracted from the cells with 0.4 N of perchloric acid (PCA) for 10 min in ice-bath, neutralization with concentrated KOH to pH 7.0, and analyzed by HPLC analysis as described previously (Xu et al., 2005; Seymour et al., 1996). The intracellular ATP contents were calculated using the ATP standard curve generated under identical HPLC conditions, and normalized by equal cell number. The relative cellular ATP levels were expressed as percent of the control cells.

Question: Which “% Cell Survival” value ([1]; 5 μM, fresh drug solution) does the source give for `O=C(O)C(=O)CBr` [3-BrPA, 3-bromo-2-oxopropionic acid, reference compound] here?
Answer: 99.8 ± 1.9%

Question: What about the “% Cell Survival” value ([1]; 10 μM, drug stored for 3 weeks at 4° C.) of the same molecule?
Answer: 70.0 ± 9.8%

Question: And the “% Cell Survival” value ([1]; 10 μM, fresh drug solution)?
Answer: 59.2 ± 4.1%

Question: And the “% Cell Survival” value ([1]; 30 μM, drug stored for 3 weeks at 4° C.)?
Answer: 87.0 ± 23%

Question: And the “% Cell Survival” value ([1]; 30 μM, fresh drug solution)?
Answer: 3.0 ± 1.4%

Question: And the “% Cell Survival” value ([1]; 100 μM, drug stored for 3 weeks at 4° C.)?
Answer: 2.3 ± 0.3%

Question: What about the “% Cell Survival” value ([1]; 100 μM, fresh drug solution) of the same molecule?
Answer: 2.5 ± 0.8%

Question: And the “concentration that completely depleted cellular ATP” value [2]?
Answer: 0.3 mM

Question: What about the “concentration that completely depleted cellular ATP” value [3] of the same molecule?
Answer: 0.3 mM

Question: And the cells undergoing apoptosis [4]?
Answer: less than 20%

Question: What about the “sensitivity of HL-60/AR compared to parental HL-60 cells” value [5] of the same molecule?
Answer: equally sensitive

Question: What about the “sensitivity under hypoxic versus normoxic conditions” value [6] of the same molecule?
Answer: significantly more sensitive

Question: What about the “sensitivity of mitochondria-defect cells compared to parental cells” value [7] of the same molecule?
Answer: more sensitive

Question: And the “effect of combination with ara-C or doxorubicin on cytotoxic activity” value [8]?
Answer: significantly enhance the cytotoxic activity

Question: And the “activity of solution after storage” value ([9]; kept at 4° C. for 3 weeks)?
Answer: substantial loss of activity

Question: What about the “stability of solution at neutral pH” value ([9]; pH 7.0, kept at 4° C.) of the same molecule?
Answer: discoloration

Question: With `Nc1ccn([C@@H]2O[C@H](CO)[C@@H](O)[C@@H]2O)c(=O)n1` [ara-C] as the molecule, how does the “sensitivity of HL-60/AR compared to parental HL-60 cells” value [5] read?
Answer: moderately resistant

Question: What about the “apoptosis, % of the cells” value ([10]; concentration range of 0.5-1 μM, 30 h) of the same molecule?
Answer: 20-35%

Question: And the “sensitivity of Bcl-2 transfected cells compared to transfected control (Neo)” value [11]?
Answer: reduced sensitivity

Question: Which “sensitivity of HL-60/AR compared to parental HL-60 cells” value [5] does the source give for `COc1cccc2c1C(=O)c1c(O)c3c(c(O)c1C2=O)C[C@@](O)(C(=O)CO)C[C@@H]3O[C@H]1C[C@H](N)[C@H](O)[C@H](C)O1` [doxorubicin] here?
Answer: highly resistant

Question: And the “sensitivity under hypoxic versus normoxic conditions” value [12]?
Answer: slightly reduced

Question: And the “sensitivity under hypoxic versus normoxic conditions” value [6]?
Answer: reduced

Question: What about the “sensitivity of Bcl-2 transfected cells compared to transfected control (Neo)” value [11] of the same molecule?
Answer: reduced sensitivity

Question: For `CO[C@H]1C[C@@H]2CC[C@@H](C)[C@@](O)(O2)C(=O)C(=O)N2CCCC[C@H]2C(=O)O[C@H]([C@H](C)C[C@@H]2CC[C@@H](O)[C@H](OC)C2)CC(=O)[C@H](C)/C=C(\C)[C@@H](O)[C@@H](OC)C(=O)[C@H](C)C[C@H](C)/C=C/C=C/C=C/1C` [rapamycin, reference compound], which apoptosis ([10]; 100 ng/ml alone) is on record?
Answer: 4.8%

Question: And the “decrease in cell numbers” value [13]?
Answer: ~35%

Question: What about the “decrease in glucose uptake” value [14] of the same molecule?
Answer: 6%

Question: For `CC[C@]1(O)C[C@H]2CN(CCc3c([nH]c4ccccc34)[C@@](C(=O)OC)(c3cc4c(cc3OC)N(C=O)[C@H]3[C@@](O)(C(=O)OC)[C@H](OC(C)=O)[C@]5(CC)C=CCN6CC[C@]43[C@@H]65)C2)C1` [vincristine], which “sensitivity of HL-60/AR compared to parental HL-60 cells” value [5] is on record?
Answer: highly resistant
